This is an account of results in patent US6693082B2, “Method of inhibiting metastatic dissemination using desmopressin” (priority 1999, dated 2004).

Structures are written as SMILES. Marks after values point to notes of the source that are not given here. A value given as a limit tells only on which side of the number the result lay.

Data set [1] deals with murine mammary cancer cell line F3II (sarcomatoid carcinoma). The experiment in a line: Assay 1: inhibition of pulmonary metastatic colonization, i.v. inoculated F3II cells in BALB/c mice. It is filed as in vivo. The protocol: (§1) Assay 1: Inhibition of Metastatic Colonization by the Application of Desmopressin 12-16 weeks old syngenic mice from the BALB/c strain weighing 25 g on average were used. As tumor cells, murine mammary cancer cell lines […] (sarcomatoid carcinoma) and LM3 (poorly differentiated adenocarcinoma) were used and kept in monolayer culture in minimum essential medium (MEM, Gibco, Grand Island, N.Y.), supplemented with 5% heat-inactivated bovine fetal serum, 2 mM glutamine and gentamicine 80 μg/ml ([…]. Farías, […]. Bal de Kier Joffé, Characterization of […], a Mammary Sarcomatoid Carcinoma Cell Line Originated From a Mouse Adenocarcinoma, J. Surg. Oncol. 1996, 62:288-97). In order to collect them, cells were trypsinized following conventional procedures. Desmopressin available from Ferring Pharmaceuticals (Malmo, Sweden) was used. Desmopressin as provided by Sigma Chemical Co. (St. Louis, Miss.) was also employed. Mice were inoculated with tumor cells at a concentration of 2×10^5 cells/0.3 ml MEM/mouse in the side vein of their tails, in accordance with the following schedule and using eight animals in each group: Coinjection with Desmopressin: tumor cells were preincubated in serum-free MEM and i.v. coinjected with desmopressin, at a final dose of 1 μg ([…] cells) or 2 μg (LM3 cells) per kg of body weight. Preincubation with Desmopressin: tumor cell suspensions were preincubated in serum-free MEM for 30-60 minutes at 37° C., in the presence of equivalent concentrations of desmopressin (80-160 ng/ml MEM). Then, cells were pelleted, resuspended in serum-free MEM and i.v. injected in the absence of desmopressin. Control: animals inoculated with tumor cells, with no desmopressin treatment. Three weeks after inoculation, lung weights were quantified and the number of pulmonary metastatic nodules was determined under the dissection microscope.

Data set [2] has as its system murine mammary cancer cell line LM3 (poorly differentiated adenocarcinoma). As to the kind of experiment: Assay 1: inhibition of pulmonary metastatic colonization, i.v. inoculated LM3 cells in BALB/c mice. The data set is classed as in vivo. On the procedure:
as §1

Data set [3] has as its system breast carcinoma tumor cells F3II. The experiment in a line: Assay 2: extension of desmopressin action on experimental metastases (i.v. injection after tumor cell inoculation). The data set is classed as in vivo, mice. On the procedure:
Assay 2: Extension of Desmopressin Action on Experimental Metastases Four groups of ten mice each were organized, and were inoculated with breast carcinoma tumor cells […], in accordance with the above description for Assay 1. Thereafter they were intravenously injected with desmopressin in 0.1 ml of physiological solution at different times (1.5 hours, 3 hours and 24 hours) after the inoculation with tumor cells. Quantification of pulmonary weights took place three weeks after tumoral inoculation. The results are depicted in FIG. 1, in which they are expressed as media±error standard. Similar results were obtained by quantifying the number of pulmonary metastatic nodules per animal.

Data set [4] concerns F3II tumor cell suspensions. The experiment in a line: Assay 3A: cell survival of tumor cell suspensions, trypan blue. Particulars: 80 ng/ml and 160 ng/ml; 1-5 hours at 37° C. in serum-free MEM. It is filed as cell-based, murine. The protocol:
Assay 3: Cell Survival and Cytotoxicity In Vitro
A. F3II tumor cell suspensions were incubated at 37° C. in serum-free MEM: in the absence of desmopressin, in the presence of desmopressin, at concentrations of 80 ng/ml, in the presence of desmopressin, at concentrations of 160 ng/ml.
After 1-5 hours, cellular viability was assessed by the trypan blue technique. The results are shown in FIG. 2, where the absence of desmopressin (squares) and the presence of desmopressin are represented at concentrations of 80 ng/ml (triangles) and of 160 ng/ml (circles).

The subject of data set [5] is mammary carcinoma murine model F3II. The conditions noted are these: F3II cells in culture; 100 ng/ml at 1 μg/ml; cited from earlier work.
For data set [6] the following is noted: mouse, in vivo; cited from earlier work.
The conditions of data set [7]: human, in vivo; cited from earlier work.
For data set [8] the following is noted: in vivo, cited from earlier work.

Take `NC(=O)CC[C@@H]1NC(=O)[C@H](Cc2ccccc2)NC(=O)[C@H](Cc2ccc(O)cc2)NC(=O)CCSSC[C@@H](C(=O)N2CCC[C@H]2C(=O)N[C@H](CCCN=C(N)N)C(=O)NCC(N)=O)NC(=O)[C@H](CC(N)=O)NC1=O` [desmopressin, 1-deamino-8-D-arginine vasopressin]: the “Number of median pulmonary nodules (range)” value in data set [1] (F3II cells preincubated 30-60 minutes at 37° C. with desmopressin (80-160 ng/ml MEM), injected in absence of desmopressin, three weeks) is given as 19 (3-66); in data set [1] (F3II cells, i.v. coinjection with desmopressin, final dose 1 μg per kg, three weeks after inoculation, p < 0.01 vs control), 5 (0-12)*; in data set [2] (LM3 cells preincubated 30-60 minutes at 37° C. with desmopressin (80-160 ng/ml MEM), injected in absence of desmopressin, three weeks), 12 (8-37); in data set [2] (LM3 cells, i.v. coinjection with desmopressin, final dose 2 μg per kg, three weeks after inoculation, p < 0.01 vs control), 3 (1-18)*. In addition, the “Decrease in number of metastatic nodules” value is given as “about 70%” in data set [1] (F3II cells, coinjection with desmopressin vs control) and “about 70%” in data set [2] (LM3 cells, coinjection with desmopressin vs control). For the same compound, the “Incidence of metastatic nodules after tumor cell preincubation in vitro” value is recorded as “did not lessen the incidence of metastatic nodules” in data set [1] (F3II cells, preincubation with equivalent concentrations of desmopressin) and “did not lessen the incidence of metastatic nodules” in data set [2] (LM3 cells, preincubation with equivalent concentrations of desmopressin). In data set [3] (animals treated with desmopressin), the Extrapulmonary metastases result is on record as “No extrapulmonary metastases were found”. Also, the “Inhibition of metastases (pulmonary weights, FIG. 1)” value in data set [3] (desmopressin i.v. 24 hours after inoculation of tumor cells, three weeks after inoculation) is reported as “inhibition of metastases was also effected”. In addition, in data set [4], the “Cell viability of tumor cell suspensions (trypan blue, FIG. 2)” value is given as “did not reduce cell viability”. Also, the “Breast cancer cell proliferation” value in data set [5] is listed as “able to modulate”. Also, the Urokinase secretion result in data set [5] was “able to modulate”. Also, the “Effects of high dose in mice” value in data set [6] is “no relevant effects”. In data set [7], the Thrombotic risk is 0.0001%. In addition, the Half-life in data set [8] (iv, 20 ug) is at most 2.67 h. Further, the Drug eliminated unmetabolized in data set [8] was 60%.

Turning to `NC(=O)CC[C@@H]1NC(=O)[C@H](Cc2ccccc2)NC(=O)[C@H](Cc2ccc(O)cc2)NC(=O)[C@@H](N)CSSC[C@@H](C(=O)N2CCC[C@H]2C(=O)N[C@@H](CCCN=C(N)N)C(=O)NCC(N)=O)NC(=O)[C@H](CC(N)=O)NC1=O` [vasopressin], in data set [5], the “Breast cancer cell proliferation” value is given as “able to modulate” and the Urokinase secretion entry was “able to modulate”.
